According to ChEMBL document CHEMBL4699440, “Comprehensive review on the anti-bacterial activity of 1,2,3-triazole hybrids” (Eur J Med Chem, 2019):
≈ marks a conversion by molar mass, not a printed value.

Experiments:
Talaromyces marneffei = assay: Antifungal activity against Penicillium marneffei incubated for 3 to 4 days by serial plate dilution method; format: functional; details: time day 3-4
Aspergillus fumigatus = assay: Antifungal activity against Aspergillus fumigatus NCIM 902 incubated for 3 to 4 days by serial plate dilution method; format: functional; details: time day 3-4
Pseudomonas aeruginosa = assay: Antibacterial activity against Pseudomonas aeruginosa ATCC 27853 incubated for 16 to 18 hrs by serial plate dilution method; format: functional; details: time hrs 16-18
Aspergillus flavus = assay: Antifungal activity against Aspergillus flavus NCIM 524 incubated for 3 to 4 days by serial plate dilution method; format: functional; details: time day 3-4
Escherichia coli = assay: Antibacterial activity against Escherichia coli ATCC 25922 incubated for 16 to 18 hrs by serial plate dilution method; format: functional; details: time hrs 16-18
Klebsiella pneumoniae = assay: Antibacterial activity against Klebsiella pneumoniae incubated for 16 to 18 hrs by serial plate dilution method; format: functional; details: time hrs 16-18
Staphylococcus aureus [1] = assay: Antibacterial activity against methicillin-resistant Staphylococcus aureus ATCC 25923 incubated for 16 to 18 hrs by serial plate dilution method; format: functional; details: time hrs 16-18
[2] = tested on: Trichophyton mentagrophytes; assay: Antifungal activity against Trichophyton mentagrophytes incubated for 3 to 4 days by serial plate dilution method; format: functional; details: time day 3-4
Staphylococcus aureus [3] = assay: Antibacterial activity against Staphylococcus aureus MTCC 96 incubated for 24 hrs by macrodilution tube method; format: functional
Bacillus cereus [4] = assay: Antibacterial activity against Bacillus cereus MTCC 430 incubated for 24 hrs by macrodilution tube method; format: functional
KB = assay: Cytotoxicity against human KB cells; format: cell-based; details: Homo sapiens, KB
Bacillus cereus [5] = assay: Antibacterial activity against Bacillus cereus; format: functional
Staphylococcus aureus [6] = assay: Antibacterial activity against Staphylococcus aureus; format: functional

Structure (SMILES) | MIC (Staphylococcus aureus [3]) [µg/mL] | MIC (Bacillus cereus [4]) [µg/mL] | MIC (Bacillus cereus [5]) [µg/mL] | MIC (Staphylococcus aureus [6]) [µg/mL] | MIC (Talaromyces marneffei) [µg/mL] | MIC (Aspergillus fumigatus) [µg/mL] | MIC (Pseudomonas aeruginosa) [µg/mL] | MIC (Aspergillus flavus) [µg/mL] | MIC (Escherichia coli) [µg/mL] | MIC (Klebsiella pneumoniae) [µg/mL] | MIC (Staphylococcus aureus [1]) [µg/mL] | MIC [2] [µg/mL] | IC50 (KB) [µg/mL]
COc1ccc2cc(/C=N/NC(=O)c3nnn(-c4cc(C(F)(F)F)nc5c(C(F)(F)F)cccc45)c3C)ccc2c1 |  |  |  |  | 6.25 (≈ 10.9 µM) | 6.25 (≈ 10.9 µM) | 6.25 (≈ 10.9 µM) | 6.25 (≈ 10.9 µM) | 6.25 (≈ 10.9 µM) | 6.25 (≈ 10.9 µM) | 6.25 (≈ 10.9 µM) | 6.25 (≈ 10.9 µM) | 
COc1cccc(/C=N/NC(=O)c2nnn(-c3cc(C(F)(F)F)nc4c(C(F)(F)F)cccc34)c2C)c1 |  |  |  |  | 6.25 (≈ 12 µM) | 6.25 (≈ 12 µM) | 6.25 (≈ 12 µM) | 6.25 (≈ 12 µM) | 6.25 (≈ 12 µM) | 6.25 (≈ 12 µM) | 6.25 (≈ 12 µM) | 6.25 (≈ 12 µM) | 
COc1ccc(/C=N/NC(=O)c2nnn(-c3cc(C(F)(F)F)nc4c(C(F)(F)F)cccc34)c2C)cc1OC |  |  |  |  | 6.25 (≈ 11.3 µM) | 6.25 (≈ 11.3 µM) | 6.25 (≈ 11.3 µM) | 6.25 (≈ 11.3 µM) | 6.25 (≈ 11.3 µM) | 6.25 (≈ 11.3 µM) | 6.25 (≈ 11.3 µM) | 6.25 (≈ 11.3 µM) | 
Cc1c(C(=O)N/N=C/c2cccnc2)nnn1-c1cc(C(F)(F)F)nc2c(C(F)(F)F)cccc12 |  |  |  |  | 6.25 (≈ 12.7 µM) | 6.25 (≈ 12.7 µM) | 6.25 (≈ 12.7 µM) | 6.25 (≈ 12.7 µM) | 6.25 (≈ 12.7 µM) | 6.25 (≈ 12.7 µM) | 6.25 (≈ 12.7 µM) | 6.25 (≈ 12.7 µM) | 
COc1ccc(/C=N/NC(=O)c2nnn(-c3cc(C(F)(F)F)nc4c(C(F)(F)F)cccc34)c2C)cc1 |  |  |  |  | 6.25 (≈ 12 µM) | 6.25 (≈ 12 µM) | 6.25 (≈ 12 µM) | 6.25 (≈ 12 µM) | 6.25 (≈ 12 µM) | 6.25 (≈ 12 µM) | 6.25 (≈ 12 µM) | 6.25 (≈ 12 µM) | 
COc1cccc(/C=N/NC(=O)c2nnn(-c3cc(C(F)(F)F)nc4c(C(F)(F)F)cccc34)c2C)c1O |  |  |  |  | 6.25 (≈ 11.6 µM) | 6.25 (≈ 11.6 µM) | 6.25 (≈ 11.6 µM) | 6.25 (≈ 11.6 µM) | 6.25 (≈ 11.6 µM) | 6.25 (≈ 11.6 µM) | 6.25 (≈ 11.6 µM) | 6.25 (≈ 11.6 µM) | 
Cc1c(C(=O)N/N=C/c2ccc(O)cc2)nnn1-c1cc(C(F)(F)F)nc2c(C(F)(F)F)cccc12 |  |  |  |  | 6.25 (≈ 12.3 µM) | 6.25 (≈ 12.3 µM) | 6.25 (≈ 12.3 µM) | 6.25 (≈ 12.3 µM) | 6.25 (≈ 12.3 µM) | 6.25 (≈ 12.3 µM) | 6.25 (≈ 12.3 µM) | 6.25 (≈ 12.3 µM) | 

Now from value to molecule, other results behind:

MIC (Staphylococcus aureus [3]) [µg/mL] | MIC (Bacillus cereus [4]) [µg/mL] | MIC (Bacillus cereus [5]) [µg/mL] | MIC (Staphylococcus aureus [6]) [µg/mL] | Structure (SMILES) | MIC (Talaromyces marneffei) [µg/mL] | MIC (Aspergillus fumigatus) [µg/mL] | MIC (Pseudomonas aeruginosa) [µg/mL] | MIC (Aspergillus flavus) [µg/mL] | MIC (Escherichia coli) [µg/mL] | MIC (Klebsiella pneumoniae) [µg/mL] | MIC (Staphylococcus aureus [1]) [µg/mL] | MIC [2] [µg/mL] | IC50 (KB) [µg/mL]
16 (≈ 25.5 µM) | 16 (≈ 25.5 µM) |  |  | CC(C)c1ccc(C2C3=C(CCCC3=O)Oc3cc4ccc(OCc5cn(-c6ccnc7cc(Cl)ccc67)nn5)cc4cc32)cc1 (stereo not drawn) |  |  |  |  |  |  |  |  | 
16 (≈ 27.3 µM) | 16 (≈ 27.3 µM) |  |  | O=C1CCCC2=C1C(c1ccccc1)c1cc3cc(OCc4cn(-c5ccnc6cc(Cl)ccc56)nn4)ccc3cc1O2 (stereo not drawn) |  |  |  |  |  |  |  |  | 
16 (≈ 25.4 µM) | 16 (≈ 25.4 µM) |  |  | CC1(C)CC(=O)C2=C(C1)Oc1cc3ccc(OCc4cn(-c5ccnc6cc(Cl)ccc56)nn4)cc3cc1C2c1ccc(F)cc1 (stereo not drawn) |  |  |  |  |  |  |  |  | 
16 (≈ 23.1 µM) | 16 (≈ 23.1 µM) |  |  | CC1(C)CC(=O)C2=C(C1)Oc1cc3ccc(OCc4cn(-c5ccnc6cc(Cl)ccc56)nn4)cc3cc1C2c1ccc(Br)cc1 (stereo not drawn) |  |  |  |  |  |  |  |  | 
16 (≈ 26.7 µM) | 16 (≈ 26.7 µM) |  |  | Cc1ccc(C2C3=C(CCCC3=O)Oc3cc4ccc(OCc5cn(-c6ccnc7cc(Cl)ccc67)nn5)cc4cc32)cc1 (stereo not drawn) |  |  |  |  |  |  |  |  | 
16 (≈ 23.8 µM) | 16 (≈ 23.8 µM) |  |  | COc1ccc(C2C3=C(CC(C)(C)CC3=O)Oc3cc4ccc(OCc5cn(-c6ccnc7cc(Cl)ccc67)nn5)cc4cc32)cc1OC (stereo not drawn) |  |  |  |  |  |  |  |  | 
16 (≈ 25.5 µM) | 16 (≈ 25.5 µM) |  |  | Cc1ccc(C2C3=C(CC(C)(C)CC3=O)Oc3cc4ccc(OCc5cn(-c6ccnc7cc(Cl)ccc67)nn5)cc4cc32)cc1 (stereo not drawn) |  |  |  |  |  |  |  |  | 
 |  | 1.56 (≈ 0.725 µM) | 1.56 (≈ 0.725 µM) | CC(C)C[C@H](NC(=O)CNC(=O)C(C)(C)NC(=O)[C@@H](NC(=O)C(C)(C)NC(=O)[C@H](CCC(N)=O)NC(=O)[C@H](C)NC(=O)C(C)(C)NC(=O)[C@H](C)NC(=O)C(C)(C)NC(=O)[C@@H]1CCN(C(=O)C(C)(C)n2cc(-c3ccc(OC(F)(F)F)c(F)c3)nn2)C1)C(C)C)C(=O)NC(C)(C)C(=O)N1CCC[C@@H]1C(=O)N[C@H](C(=O)NC(C)(C)C(=O)NC(C)(C)C(=O)N[C@@H](CCC(N)=O)C(=O)N[C@@H](CCC(N)=O)C(=O)N[C@H](CO)Cc1ccccc1)C(C)C |  |  |  |  |  |  |  |  | 2.9 (≈ 1.35 µM)
